What all share (format): functional, organism-based
The subject of assay [1] is Leishmania braziliensis. The assay is described as follows: In vitro evaluation of leishmanicidal activity against Leishmania brasiliensis (2903) at a dose 50 ug/mL; ++ = 80- 90% lysis.
Assay [2] concerns Leishmania donovani. The assay is described as follows: In vitro evaluation of leishmanicidal activity against Leishmania donovani (PP75) at a dose 50 ug/mL; ++ = 80- 90% lysis.
The test system of assay [3] is Leishmania amazonensis. Nature of the assay: In vitro evaluation of leishmanicidal activity against Leishmania amazonensis (PH8) at a dose 50 ug/mL;++ = 80- 90% lysis.
The test system of assay [4] is Leishmania donovani. The assay is described as follows: In vitro evaluation of leishmanicidal activity against Leishmania donovani (PP75) at a dose 100 ug/mL; + = <70% lysis.
Assay [5] has as its system Leishmania braziliensis. The assay is described as follows: In vitro evaluation of leishmanicidal activity against Leishmania brasiliensis (2903) at a dose 100 ug/mL; + = <70% lysis.
Assay [6] relates to Leishmania amazonensis. The assay is described as follows: In vitro evaluation of leishmanicidal activity against Leishmania amazonensis (PH8) at a dose 10 ug/mL; ++ = 80- 90% lysis.
Assay [7] concerns Leishmania donovani. The assay is described as follows: In vitro evaluation of leishmanicidal activity against Leishmania donovani (PP75) at a dose 10 ug/mL; ++ = 80- 90% lysis.
Assay [8] has as its system Leishmania donovani. Nature of the assay: In vitro evaluation of leishmanicidal activity against Leishmania donovani (PP75) at a dose 25 ug/mL; ++ = 80- 90% lysis.
Assay [9] relates to Leishmania braziliensis. Nature of the assay: In vitro evaluation of leishmanicidal activity against Leishmania brasiliensis (2903) at a dose 25 ug/mL; ++ = 80- 90% lysis.
The test system of assay [10] is Leishmania amazonensis. Nature of the assay: In vitro evaluation of leishmanicidal activity against Leishmania amazonensis (PH8) at a dose 50 ug/mL; ++ = 80- 90% lysis.
For assay [11], the system named is Leishmania amazonensis. The assay is described as follows: In vitro evaluation of leishmanicidal activity against Leishmania amazonensis (PH8) at a dose 25 ug/mL; ++ = 80- 90% lysis.
For assay [12], the system named is Leishmania braziliensis. Nature of the assay: In vitro evaluation of leishmanicidal activity against Leishmania brasiliensis (2903) at a dose 10 ug/mL; ++ = 80- 90% lysis.
Assay [13] concerns Leishmania amazonensis. Nature of the assay: In vitro evaluation of leishmanicidal activity against Leishmania amazonensis (PH8) at a dose 100 ug/mL; ++ = 80- 90% lysis.
In assay [14] the test system is Leishmania donovani. Nature of the assay: In vitro evaluation of leishmanicidal activity against Leishmania donovani (PP75) at a dose 100 ug/mL; ++ = 80- 90% lysis.
Assay [15] deals with Leishmania braziliensis. The assay is described as follows: In vitro evaluation of leishmanicidal activity against Leishmania brasiliensis (2903) at a dose 100 ug/mL; ++ = 80- 90% lysis.
The subject of assay [16] is Leishmania amazonensis. The assay is described as follows: In vitro evaluation of leishmanicidal activity against Leishmania amazonensis (PH8) at a dose 100 ug/mL; + = <70% lysis.
For assay [17], the system named is Leishmania donovani. Nature of the assay: Compound was tested in vitro for leishmanicidal activity against Leishmania donovani (PP75) at a dose 100 ug/mL; ++ = 80-90% of lysis.
The subject of assay [18] is Leishmania braziliensis. The assay is described as follows: Compound was tested in vitro for leishmanicidal activity against Leishmania brasiliensis (2903) at a dose 100 ug/mL; ++ = 80-90% of lysis.
Assay [19] relates to Leishmania amazonensis. The assay is described as follows: In vitro evaluation of leishmanicidal activity against Leishmania amazonensis (PH8) at a dose 100 ug/mL; ++ = 80-90% of lysis.
Assay [20] has as its system Leishmania braziliensis. The assay is described as follows: In vitro evaluation of leishmanicidal activity against Leishmania brasiliensis (2903) at a dose 10 ug/mL; +++=total lysis of parasites.
Assay [21] concerns Leishmania donovani. The assay is described as follows: In vitro evaluation of leishmanicidal activity against Leishmania donovani (PP75) at a dose 25 ug/mL; +++=total lysis of parasites.
In assay [22] the test system is Leishmania donovani. The assay is described as follows: In vitro evaluation of leishmanicidal activity against Leishmania donovani (PP75) at a dose 100 ug/mL; +++=total lysis of parasites.
Assay [23] has as its system Leishmania amazonensis. Nature of the assay: In vitro evaluation of leishmanicidal activity against Leishmania amazonensis (PH8) at a dose 10 ug/mL; +++=total lysis of parasites.
The test system of assay [24] is Leishmania braziliensis. Nature of the assay: In vitro evaluation of leishmanicidal activity against Leishmania brasiliensis (2903) at a dose 100 ug/mL; +++=total lysis of parasites.
For assay [25], the system named is Leishmania amazonensis. The assay is described as follows: In vitro evaluation of leishmanicidal activity against Leishmania amazonensis (PH8) at a dose 25 ug/mL; Total lysis of parasites.
Assay [26] deals with Leishmania donovani. The assay is described as follows: In vitro evaluation of leishmanicidal activity against Leishmania donovani (PP75) at a dose 50 ug/mL; +++=total lysis of parasites.
Assay [27] has as its system Leishmania braziliensis. Nature of the assay: In vitro evaluation of leishmanicidal activity against Leishmania brasiliensis (2903) at a dose 25 ug/mLv.
For assay [28], the system named is Leishmania braziliensis. The assay is described as follows: In vitro evaluation of leishmanicidal activity against Leishmania brasiliensis (2903) at a dose 50 ug/mL; +++=total lysis of parasites.
The test system of assay [29] is Leishmania amazonensis. The assay is described as follows: In vitro evaluation of leishmanicidal activity against Leishmania amazonensis (PH8) at a dose 100 ug/mL; +++=total lysis of parasites.
Assay [30] deals with Leishmania donovani. Nature of the assay: In vitro evaluation of leishmanicidal activity against Leishmania donovani (PP75) at a dose 10 ug/mL; +++=total lysis of parasites.
Assay [31] relates to Leishmania amazonensis. Nature of the assay: In vitro evaluation of leishmanicidal activity against Leishmania amazonensis (PH8) at a dose 50 ug/mL; Total lysis of parasites.

Structures are written as SMILES. Active and inactive are the calls of the source. The rule behind the calls is not given here.

Our source for the Leishmanicidal activity values is ChEMBL document CHEMBL1132138, “Leishmanicidal activity of combretastatin analogues and heteroanalogues” (Bioorg Med Chem Lett, 1999).

With `COc1ccc2[nH]c(-c3ccc4c(c3)OCO4)c(-c3cc(OC)c(OC)c(OC)c3)c2c1`, the Leishmanicidal activity in the assay on Leishmania braziliensis [1], in the assay with Leishmania donovani [2] and in the assay on Leishmania amazonensis [3] was 80- 90% lysis each time.

`COc1cc(CCc2ccoc2)cc(OC)c1OC`: the Leishmanicidal activity in the assay on Leishmania donovani [4] and in the assay on Leishmania braziliensis [5] was below 70% lysis in each case.

`COc1cc(CC(O)c2ccc3c(c2)OCO3)cc(OC)c1OC` (stereo not given): the Leishmanicidal activity in the assay on Leishmania braziliensis [1], in the assay on Leishmania amazonensis [6], with Leishmania donovani [7], in the assay with Leishmania donovani [2], in the assay with Leishmania donovani [8] and in the assay with Leishmania braziliensis [9] was 80- 90% lysis throughout. The Leishmanicidal activity in the assay with Leishmania amazonensis [10], in the assay with Leishmania amazonensis [11] and with Leishmania braziliensis [12] was 80- 90% lysis in each case.

Take `COc1ccc(CC(=O)c2ccco2)cc1O`: the Leishmanicidal activity in the assay with Leishmania amazonensis [13], with Leishmania donovani [14] and in the assay with Leishmania braziliensis [15] was 80- 90% lysis each time.

Take `COc1cc(CC(=O)c2ccc(C)o2)cc(OC)c1OC`: the Leishmanicidal activity with Leishmania amazonensis [6], with Leishmania donovani [7], with Leishmania donovani [14] and in the assay with Leishmania braziliensis [12] was 80- 90% lysis in each case.

For `COc1cc(CC(=O)c2ccco2)cc(OC)c1OC`, the Leishmanicidal activity in the assay with Leishmania amazonensis [6], with Leishmania donovani [7] and in the assay with Leishmania braziliensis [12] was 80- 90% lysis each time.

As for `COc1ccc2[nH]c(-c3ccco3)c(-c3cc(OC)c(OC)c(OC)c3)c2c1`, the Leishmanicidal activity in the assay with Leishmania amazonensis [6], with Leishmania donovani [7] and in the assay on Leishmania braziliensis [12] was 80- 90% lysis in each case.

Take `COc1cc(CC(=O)c2ccoc2)cc(OC)c1OC`: the Leishmanicidal activity in the assay on Leishmania amazonensis [13], in the assay with Leishmania donovani [14] and in the assay with Leishmania braziliensis [15] was 80- 90% lysis each time.

As for `COc1cc(CCc2cn(C)c3ccccc23)cc(OC)c1OC`, the Leishmanicidal activity in the assay on Leishmania amazonensis [6], in the assay on Leishmania donovani [7], in the assay with Leishmania donovani [8], with Leishmania braziliensis [9], in the assay with Leishmania amazonensis [11] and in the assay with Leishmania braziliensis [12] was 80- 90% lysis in each case.

For the compound `COc1ccc2[nH]c(-c3ccc4ccccc4c3)c(-c3cc(OC)c(OC)c(OC)c3)c2c1`, the Leishmanicidal activity in the assay on Leishmania amazonensis [13], in the assay on Leishmania donovani [14] and with Leishmania braziliensis [15] was 80- 90% lysis each time.

Regarding `COc1ccc(CCc2ccco2)cc1O`, the Leishmanicidal activity in the assay with Leishmania amazonensis [13], in the assay with Leishmania donovani [14] and in the assay with Leishmania braziliensis [15] was 80- 90% lysis in each case.

In the case of `COc1cc(C(O)C(=O)c2cccs2)cc(OC)c1OC` (stereo not given), the Leishmanicidal activity in the assay with Leishmania donovani [4], in the assay on Leishmania amazonensis [16] and with Leishmania braziliensis [5] was below 70% lysis throughout.

Regarding `COc1cc(CCc2ccco2)cc(OC)c1OC`, the Leishmanicidal activity in the assay on Leishmania amazonensis [6], in the assay with Leishmania donovani [7], with Leishmania donovani [8], in the assay with Leishmania braziliensis [9], in the assay on Leishmania donovani [14] and with Leishmania amazonensis [11] was 80- 90% lysis throughout. In addition, in the assay on Leishmania braziliensis [12], the Leishmanicidal activity was 80- 90% lysis.

With `COc1cc(CCc2ccc3ccccc3c2)cc(OC)c1OC`, the Leishmanicidal activity with Leishmania braziliensis [1], with Leishmania donovani [2] and with Leishmania amazonensis [10] was 80- 90% lysis each time.

For the compound `COc1cc(CC(=O)c2ccc3c(c2)OCO3)cc(OC)c1OC`, the Leishmanicidal activity with Leishmania braziliensis [1], in the assay with Leishmania amazonensis [6], in the assay on Leishmania donovani [7], with Leishmania donovani [8], in the assay on Leishmania braziliensis [9] and in the assay on Leishmania amazonensis [11] was 80- 90% lysis in each case. For the same compound, the Leishmanicidal activity in the assay with Leishmania braziliensis [12] is given as 80- 90% lysis.

As to `COc1cc(CC(O)c2ccco2)cc(OC)c1OC` (stereo not given), the Leishmanicidal activity in the assay on Leishmania amazonensis [13], in the assay with Leishmania donovani [14] and in the assay on Leishmania braziliensis [15] was 80- 90% lysis throughout.

Take `COc1ccc(CCc2ccc3c(c2)OCO3)cc1O`: the Leishmanicidal activity in the assay on Leishmania braziliensis [1], with Leishmania amazonensis [13], with Leishmania donovani [2], in the assay with Leishmania amazonensis [10] and in the assay on Leishmania braziliensis [15] was 80- 90% lysis in each case.

Turning to `COc1cc(CC2(c3cn(C)c4ccccc34)SCCCS2)cc(OC)c1OC`, the Leishmanicidal activity with Leishmania donovani [17], in the assay with Leishmania braziliensis [18] and in the assay with Leishmania amazonensis [19] was 80-90% of lysis throughout.

In the case of `N=C(N)c1ccc(OCCCCCOc2ccc(C(=N)N)cc2)cc1`, the Leishmanicidal activity entry with Leishmania braziliensis [20], with Leishmania donovani [21], in the assay on Leishmania donovani [22], with Leishmania amazonensis [23], in the assay with Leishmania braziliensis [24] and with Leishmania amazonensis [25] was “Active” each time. The Leishmanicidal activity result in the assay on Leishmania donovani [26], with Leishmania braziliensis [27], with Leishmania braziliensis [28], in the assay with Leishmania amazonensis [29], with Leishmania donovani [30] and with Leishmania amazonensis [31] was “Active” in each case.
